Assay results from patent US20090202508A1, “NEGATIVE REGULATION OF HYPOXIA INDUCIBLE FACTOR 1 BY OS-9” (THE JOHNS HOPKINS UNIVERSITY, priority 2004, published 2009).
Peptide text beside a SMILES is read from it. * marks the point of attachment. Cbz = O=C(OCc1ccccc1)*

T1: HA-OS-9 (hemagglutinin epitope-tagged human OS-9) (human, UniProt Q13438 1-667, 35S-methionine labelled when in vitro-translated)
T1 construct: In vitro-translated in reticulocyte lysate (pull-downs) or expressed in transfected 293 cells (co-IP, lysates); also called HA-tagged OS-9; in vitro-translated OS-9
T1 sequence (looked up): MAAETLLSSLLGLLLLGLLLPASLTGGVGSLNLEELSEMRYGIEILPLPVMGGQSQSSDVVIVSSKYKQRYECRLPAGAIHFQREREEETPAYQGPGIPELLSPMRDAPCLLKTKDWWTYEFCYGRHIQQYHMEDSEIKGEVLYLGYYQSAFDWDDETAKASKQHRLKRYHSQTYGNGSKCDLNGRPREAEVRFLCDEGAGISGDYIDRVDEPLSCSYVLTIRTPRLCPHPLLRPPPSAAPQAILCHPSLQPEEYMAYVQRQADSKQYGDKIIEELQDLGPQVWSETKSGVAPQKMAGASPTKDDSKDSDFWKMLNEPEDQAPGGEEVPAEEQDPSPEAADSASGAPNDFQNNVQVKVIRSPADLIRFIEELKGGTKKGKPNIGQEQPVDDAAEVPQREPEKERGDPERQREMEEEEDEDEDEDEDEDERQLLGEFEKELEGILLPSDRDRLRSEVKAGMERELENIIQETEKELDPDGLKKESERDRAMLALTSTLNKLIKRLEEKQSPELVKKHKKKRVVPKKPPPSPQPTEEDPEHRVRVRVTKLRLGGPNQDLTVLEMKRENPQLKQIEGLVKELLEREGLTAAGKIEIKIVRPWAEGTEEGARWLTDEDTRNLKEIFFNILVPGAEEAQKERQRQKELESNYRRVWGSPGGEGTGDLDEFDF


Key:
PHD2 [1] = biological target: T2, PHD2 (Homo sapiens, UniProt Q9GZT9); experiment: Prolyl hydroxylation assay / in vitro VHL binding assay with GST-HIF-1α (531-826); format: biochemical; details: lysates of PHD2/OS-9 transfected 293 cells; 1 mM DMOG; FIG. 7A
T2 construct: expressed in transfected cells; host or cells: 293 cells (whole cell lysate used as the enzyme source)
Procedure: [^35S]methionine-labeled VHL protein was synthesized in vitro and GST-HIF-1α (531-826) fusion protein (GstA) was expressed in E. coli. 293 cells were transfected with empty, PHD2, or OS-9 expression vector. After 24 h, cells were washed twice with cold hypotonic extraction buffer containing 20 mM Tris (pH 7.5), 5 mM KCl, 1.5 mM MgCl2, 1 mM dithiothreitol and lysed with hypotonic extraction buffer in a Dounce homogenizer. The cell extract was centrifuged at 10,000×g for 10 min at 4° C., and the supernatant was stored in aliquots at −70° C. GstA (4 μg) was preincubated with whole cell lysate (50 μg) in a total volume of 50 μl with PBS-T at 30° C. for 10 min with or without 1 mM dimethyloxalyl glycine (DMOG). The reaction was terminated by addition of desferrioxamine to 1 mM. One aliquot (0.5 μg of GstA) was used for immunoblot assay using anti-hydroxyproline-564 HIF-1α antibody (Chan et al., 2002). The remainder ([…] of GstA) was used for in vitro VHL binding assay.
(§1) For in vitro VHL binding assay, preincubated GstA and 5 μl of [^35S]methionine-labeled VHL protein were mixed in a total volume of 300 μl of PBS-T with 1 mM desferrioxamine and incubated at 4° C. for 90 min. 20 ul of glutathione-Sepharose-4B beads (Amersham Biosciences) was added and incubated for 30 min with rotation. Beads were washed three times with PBS-T. Proteins were eluted in Laemmli sample buffer, fractionated by SDS-PAGE, and detected by autoradiography. For PHD binding assay, […] of GST-HIF-1α was preincubated with 50 μg of -whole cell lysate in a total volume of 50 μl with PBS-T at 30° C. for 10 min with or without 1 mM DMOG. The reaction was terminated by addition of desferrioxamine to 1 mM, 20 μl of glutathione-Sepharose-4B beads were added and incubated for 30 min. The beads were washed three times with PBS-T. Bound protein was eluted in Laemmli sample buffer, fractionated by SDS-PAGE, and subjected to immunoblot assay using antibodies against PHD2 (Novus Biologicals Inc.) or GST (Amersham).

PHD2 [2] = biological target: T2, PHD2; experiment: PHD binding assay (pull down of PHD2 with GST-HIF-1α (531-826)); details: lysates of transfected 293 cells; 1 mM DMOG; FIG. 7B
Procedure: as §1

HIF-1α = HIF-1α protein levels by immunoblot in transfected 293 cells; format: cell-based, human; details: 293 cells co-transfected with HA-OS-9 and HIF-1α; MG132 10 μM; FIG. 4A
Procedure: 293 or Hep3B cells were seeded onto 24-well plates at 8×10^4 cells per well of a 24-well plate. The following day, the cells were transfected with plasmid DNAs using Fugene-6 (Roche) for 293 and Lipofectamine Plus (Invitrogen) for Hep3B cells. After 24 h, the cells were exposed to 20% or 1% O2 for 24 h. Cells were lysed, and the luciferase activities were determined by multi-well luminescence reader (PerkinElmer), using the Dual-Luciferase Reporter Assay System (Promega). For p2.1 reporter assay, cells were co-transfected with 15 ng of control reporter pSV-Renilla, 135 ng of HIF-1 reporter p2.1, and expression vector encoding HA-OS-9, HIF-1α, or empty vector. Unless indicated otherwise, 200 ng of HIF-1α, 400 ng of HA-OS-9, 1 ng of PHD2, or 1 ng of HIF-1α triple mutant P402A/P564A/N803A (HIF-1α TM) expression vector was used for co-transfection. For pGalA reporter assays, Hep3B cells were co-transfected with 12.5 ng of pSV-Renilla, reporter 200 ng of pG5ElbLuc, 100 ng of expression vector encoding the GAL4 DNA-binding domain alone or fused to HIF-1α residues 531-826 (Jiang et al. 1997) and empty vector or vector encoding HA-OS-9. For immunoblot assays, 293 cells were seeded at 3×10^6 cells per 10-cm plate. The following day, the cells were co-transfected with expression vectors using Fugene-6. After 24 h, the cells were exposed to 20% or 1% O2 with or without MG132 (10 μM) for 8 h and lysed in 200 μl of lysis buffer containing 50 mM Tris-Cl (pH 8.0), 150 mM NaCl, 5 mM EDTA, 0.1% SDS, 1% NP-40, 0.5% sodium deoxycholate, Complete protease inhibitor cocktail (Roche), sodium orthovanadate, and sodium vanadate (Sigma).

[3] = biological target: T1, HA-OS-9 (hemagglutinin epitope-tagged …); experiment: GST pull-down of 35S-labelled in vitro-translated HA-OS-9, SDS-PAGE and autoradiography

T2 sequence (Q9GZT9 whole entry): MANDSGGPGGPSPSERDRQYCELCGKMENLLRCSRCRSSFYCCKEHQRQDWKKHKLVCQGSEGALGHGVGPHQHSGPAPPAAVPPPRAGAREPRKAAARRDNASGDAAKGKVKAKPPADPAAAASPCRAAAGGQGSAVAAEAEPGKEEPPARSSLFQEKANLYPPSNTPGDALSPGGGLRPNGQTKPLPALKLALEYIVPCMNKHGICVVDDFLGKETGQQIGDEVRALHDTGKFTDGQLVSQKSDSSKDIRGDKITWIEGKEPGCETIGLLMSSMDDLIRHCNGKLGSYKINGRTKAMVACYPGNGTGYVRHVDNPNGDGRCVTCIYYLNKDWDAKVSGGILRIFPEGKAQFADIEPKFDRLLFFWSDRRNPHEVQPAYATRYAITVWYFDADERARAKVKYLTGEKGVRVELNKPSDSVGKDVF

binding result [3] | Molecule | further results
no binding | GST-HIF-1α (531-610) (other, UniProt Q16665 531-610, looked up, Expressed in E. coli; not shown: glutathione-S-transferase (GST) from a pGEX expression vector) FKLELVEKLFAEDTEAKNPFSTQDTDLDLEMLAPYIPMDDDFQLRSFDQLSPLESSSASPESASPQSTVTVFQQTQIQEP | –
no binding | SMDESGLPQLTSYDCEVNAPIQGSRNLLQGEELLRALDQVN (other, UniProt Q16665 786-826, looked up, Expressed in E. coli; not shown: glutathione-S-transferase (GST) from a pGEX expression vector) [GST-HIF-1α (786-826)] | –
no binding | GST-HIF-1α (429-608) (other, UniProt Q16665 429-608, looked up, Expressed in E. coli; not shown: glutathione-S-transferase (GST) from a pGEX expression vector) PLYNDVMLPSPNEKLQNINLAMSPLPTAETPKPLRSSADPALNQEVALKLEPNPESLELSFTMPQIQDQTPSPSDGSTRQSSPEPNSPSEYCFYVDSDMVNEFKLELVEKLFAEDTEAKNPFSTQDTDLDLEMLAPYIPMDDDFQLRSFDQLSPLESSSASPESASPQSTVTVFQQTQIQ | –

The next lines start with the molecule.

Molecule | binding result [3] | further results
COC(=O)CNC(=O)C(=O)OC [DMOG, dimethyloxalylglycine, reference compound] | – | binding of VHL to GST-HIF-1α (531-826) (PHD2 [1]): completely blocked; binding of PHD2 to GST-HIF-1α (531-826) (PHD2 [2]): further increased
CC(C)C[C@@H](C=O)NC(=O)[C@H](CC(C)C)NC(=O)[C@H](CC(C)C)NC(=O)OCc1ccccc1 [MG 132, reference compound] (Cbz-Leu-Leu-Leu-aldehyde) | – | reduction in HIF-1α protein levels associated with OS-9 co-expression (HIF-1α): blocked
